Results taken from patent US5004758A, “Water soluble camptothecin analogs useful for inhibiting the growth of animal tumor cells” (priority 1988, dated 1991).
Structures can show the parent of a compound that is named as a salt. Where two headings read alike, the source gives them in different places.

What was measured:
[1] = test system: ip P388 leukemia; conditions: ip P388 Leukemia; optimal doses and optimal schedules
Method: Increase in lifespan (ILS) is based on median survival time of groups of 6 mice. Net tumor cell kill (NCK) is calculated from median survival time by standard methods, since survival time is a linear function of the log tumor cell burden.
Animals were implanted ip with 10^6 cells. Increase in lifespan (ILS) is based on median survival time of groups of 6 mice relative to untreated controls. Long-term survivors were tumor-free on Day 45.
(§2) Tumors used in these studies--P388 leukemia and its doxorbicin--and mitoxanrone-resistant sublines, L1210 leukemia, B16 melanoma, B16 melanoma/F10 subline, M5076 sarcoma and colon carcinoma 26--are maintained by serial transplantation in syngeneic strains of mice. For the leukemias, these tumors are maintained in DBA/2 mice. The M5076 sarcoma, the B16 melanoma and its F10 subline are maintained in C57B1/6 mice and the colon sarcinoma 26 is maintained in BALB/c mice. The leukemias and the M5076 sarcoma are serially transplanted i.p. as ascites cell suspensions while the B16 melanoma lines and the colon carcinoma 26 are serially transplanted as s.c. solid tumors.
(§3) For therapeutic trials, tumors are aseptically removed from donor mice and prepared as suspensions for implantation ip into test animals. The test animals for the colon carcinoma 26 are female BALB/c mice (20-25 gm). The test animals for the other tumor models are syngeneic female F1 hybrid B6D2F1 mice (C57B1/6 x DBA/2). The inoculum level varies with the type of tumor: P388 leukemia is inoculated at 10^6 cells per mouse, L1210 leukemia at 10^5 or 10^6 cells per mouse, M5076 sarcoma at 5×10^6 cells per mouse. For implantation of the B16 melanoma lines and the colon carcinoma 26, s.c. tumors from donor mice are minced and homogenized in loose fitting teflon glass homogenizer to give a tumor brei. The inoculum levels are 0.5 ml of a 10 percent (w:v) brei of the B16 melanoma lines and 0.5 ml of a 5 percent (w:v) brei of colon carcinoma 26. After tumor inoculation, mice randomized to treatment groups comprised of 6-8 mice each. In each experiment, there are three groups of untreated control mice. Drugs are dissolved or suspended in appropriate aqueous vehicles and given by a variety of routes and schedules of administration over a range of dose levels. Animals are housed in shoebox cages and are monitored daily for mortality for 30 (L1210), 45 (P388) or 60 (B16, M5076, colon 26) days.

[2] = test system: sc mammary adenocarcinoma 16/c; assay: in vivo; parameters: species or system mouse; conditions: sc Mammary Adenocarcinoma 16/c; optimal doses and optimal schedules
From the text: (§1) The inoculum varies with the tumor.

[3] = test system: L1210 leukemia cells; assay: cells; assay type: cell-based, mouse; conditions: L1210 suspension culture, continuous exposure, cloning into soft agar; read-out: In Vitro Activity IC50
Method: Cells were exposed continuously upon cloning into medium containing 0.2 percent Noble agar. After incubation at 37° C. in a CO2 incubator for 3 days, colonies were stained with viable cell specific formazan stain and, 24 hours later, were enumerated by a colony counter (Biotran II, New Brunswick Scientific Co., Edison, N.J.) adjusted to identify colonies of more than 50 cells. The concentration which reduced cloning efficiency by 50 percent IC50) was determined by interpolation.

[4] = test system: iv L1210 leukemia; conditions: for Increase in Lifespan (ILS) or Inhibition of Tumor Growth (TGI): iv L1210 Leukemia, optimal doses and optimal schedules; for ILS: iv L1210 (10^6 cells), Days 1 & 5, route ip in table head (iv)
From the text: (§4) Animals were inoculated iv with 10^6 cells. Increase in lifespan (ILS) is based on median survival time of groups of 6 mice relative to untreated controls.
(§5) The protocols utilized for the evaluation of the antitumor activity of Formula (I) compounds are well established and widely utilized by those skilled in the art of assessing the activity of drugs in preclinical tumor models. These studies generally follow the protocols established by the National Cancer Institute as described by Geran et al., Cancer Chemotherapy Reports, Part 3, Vol. 3, 1-103, 1972.
(§6) Tumors used in these studies P388 leukemia, L1210 leukemia and Lewis lung carcinoma--are maintained by serial transplantation in syngeneic strains of mice, DBA/2 for the leukemias and C57B1/6 for Lewis lung carcinoma. The leukemias are serially transplanted i.p. as ascites cell suspensions while the Lewis lung carcinoma is serially transplanted as a s.c. solid tumor.
(§7) For therapeutic trials, tumors were aseptically removed from donor mice and prepared as suspensions for implantation into test animals which for each tumor are syngeneic female F1 hybrid B6D2F1 mice (C57B1/6×DBA/2). The inoculum level varies with the type of tumor: P388 leukemia is inoculated at 10^6 cells per mouse, L1210 leukemia at 10^5 or 10^6 cells per mouse, and Lewis lung carcinoma at 0.25 ml of a 10 percent (w:v) brei. […] After tumor inoculation, mice are randomized to treatment groups of 6 to 8 mice each. In each experiment, there are three groups of untreated control mice.
(§8) Drugs are dissolved or suspended in appropriate aqueous vehicles and given i.p. or i.v. on various treatment schedules over a range of dosage levels. Animals are housed in shoebox cages and monitored daily for mortality for 30 (L1210), 45 (P388) or 60 (Lewis lung) days.

[5] = test system: sc Lewis lung carcinoma; assay type: in vivo, mouse; conditions: sc Lewis Lung Carcinoma; optimal doses and optimal schedules
From the text: as §1

[6] = test system: sc B16 melanoma/F10 subline; assay: sc-implanted B16 melanoma/F10 subline in mice; assay type: in vivo, mouse; conditions: sc B16 Melanoma/F10 Subline; optimal doses and optimal schedules
From the text: as §1

[7] = test system: iv P388 leukemia; conditions: iv P388 Leukemia; optimal doses and optimal schedules
From the text: as §6, §7, §8

[8] = test system: sc M5076 sarcoma; assay: sc-implanted M5076 sarcoma in mice; assay type: in vivo, mouse; conditions: sc M5076 Sarcoma; optimal doses and optimal schedules
From the text: as §1

[9] = Aqueous solubility; assay type: physicochemical
[10] = test system: ip M5076 sarcoma; assay: ip-implanted M5076 sarcoma in mice; assay type: in vivo, mouse; conditions: ip M5076 Sarcoma; optimal doses and optimal schedules
From the text: as §2, §3

[11] = test system: ip colon carcinoma 26; assay: ip-implanted colon carcinoma 26 in mice; assay type: in vivo, mouse; conditions: ip Colon Carcinoma 26; optimal doses and optimal schedules
From the text: as §2, §3

[12] = test system: sc ADJ-PC6 plasmacytoma; assay: sc-implanted ADJ-PC6 plasmacytoma in mice; assay type: in vivo, mouse; conditions: sc ADJ-PC6 Plasmacytoma; optimal doses and optimal schedules
Method: (§9) Inhibition of tumor growth (TGI) is based on mean tumor volume of groups of 7 or 8 mice relative to untreated controls. Tumors were measured between Days 12 and 19 (except Day 24 for Colon 51 and Day 31 for Colon 38).
(§10) Tumors used in these studies are maintained by serial transplantation in syngeneic strains of mice C57BL/6 for Lewis lung carcinoma, B16 melanoma and its F10 subline, M5076 sarcoma and colon adenocarcinoma 38; BALB/c for colon carcinoma 26, ADJ-PC6 plasmacytoma Madison lung carcinoma and colon adenocarcinoma 51, C3H for mammary adenocarcinoma 16/c. With the exception of the M5076 sarcoma, which is maintained as a i.p ascites cell suspension, all of the tumors were serially transplanted as s.c. solid tumors.
(§11) For therapeutic trials, tumors were aseptically removed from donor mice and prepared for implantation s.c. into test animals. The test animals for Lewis lung carcinoma, B16 melanoma and its F10 subline, M5076 sarcoma and colon adenocarcinoma 38 are syngeneic female F1 hybrid B6D2F mice (C57B1/6×DBA/2). ADJ-PC6 plasmacytoma and colon carcinoma 26 are evaluated in female BALB/c mice. Madison lung carcinoma and colon adenocarcinoma 51 are evaluated in syngeneic female F1 hybrid CD2F1 mice (BALB/c×DBA/2). Mammary adenocarcinoma 16/c is evaluated in female C3H mice. The inoculum varies with the tumor. Colon adenocarcinomas 38 is implanted as 2 mm fragments by trochar. M5076 sarcoma and ADJ-PC6 plasmacytoma are implanted as cell suspensions at 5×10^6 and 2×10^6 cells per mouse, respectively. Colon carcinoma 26, colon adenocarcinoma 51, Lewis lung carcinoma, Madison lung carcinoma and B16 melanoma and its F10 subline are implanted as tumor breis prepared as described above in a volume of 0.5 ml. The brei concentration was 10 percent (w:v) except for colon carcinoma 26 for which the brei concentration was 5 percent (w:v). After tumor inoculation, mice are randomized to treatment groups of 7 or 8 mice. In each experiment, there are three groups of untreated control mice.
(§12) Drugs are dissolved or suspended in appropriate aqueous vehicles and given by a variety of routes of administration and treatment schedules over a range of dosage levels. Animals are housed in shoebox cages and are monitored daily for mortality. […] Time for tumor measurement is dependent on the different rates of tumor growth of the different tumors: the most rapidly growing tumors such as the Lewis and Madison lung tumors, B16 melanoma and its F10 subline were measured between Days 12 and 16. The slower growing tumors were measured at later time points--17 days for M5076 sarcoma, 16 or 19 days for mammary adenocarcinoma 16/c, 19 days for ADJ-PC6 plasmacytoma and colon carcinoma 26, 24 days for colon adenocarcinoma 51, and 31 days for colon adenocarcinoma 38.

[13] = test system: ip B16 melanoma/F10 subline; conditions: ip B16 Melanoma/F10 Subline; optimal doses and optimal schedules
From the text: as §2, §3

[14] = test system: ip L1210 leukemia; assay: ip-implanted L1210 leukemia in mice;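 for all read-outs here: each mouse received 10^6 L1210 cells intraperitoneally, with drug treatment also given by the i.p. route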; conditions: for In Vivo Antitumor Activity ILS (increase in lifespan): ip L1210 (10^6 cells), drug i.p. Days 1 and 5 at maximally tolerated dose; for Increase in Lifespan (ILS) or Inhibition of Tumor Growth (TGI): ip L1210 Leukemia, optimal doses and optimal schedules
Method: (§13) For in vivo studies L1210 cells were implanted i.p. (10^6 per mouse)
(§14) and drugs were administered i.p. on Days 1 and 5. Increase in lifespan
(§15) (ILS) was based on median survival time of groups of 6 mice treated at th
maximally tolerated dose of the drugs.

[15] = ip-implanted L1210 leukemia in mice; conditions: mouse, in vivo, ip;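 note: each mouse received 10^6 L1210 cells intraperitoneally, with drug treatment also given by the i.p. route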
Method: as §13, §14, §15
maximally tolerated dose of the drugs.

[16] = test system: ip B16 melanoma; conditions: ip B16 Melanoma; optimal doses and optimal schedules
From the text: as §2, §3

[17] = test system: sc Madison lung carcinoma; assay: sc-implanted Madison lung carcinoma in mice; assay type: in vivo, mouse; conditions: sc Madison Lung Carcinoma; optimal doses and optimal schedules
From the text: as §1

[18] = test system: sc colon carcinoma 26; assay: sc-implanted colon carcinoma 26 in mice; assay type: in vivo, mouse; conditions: sc Colon Carcinoma 26; optimal doses and optimal schedules
From the text: as §1

[19] = in vivo; conditions: mouse, iv
From the text: as §4, §5, §6, §7, §8

[20] = in vivo; conditions: mouse, ip
Method: as §13, §14, §15
maximally tolerated dose of the drugs.

[21] = test system: sc B16 melanoma; conditions: sc B16 Melanoma; optimal doses and optimal schedules
From the text: Inhibition of tumor growth (TGI) is based on mean tumor volume of groups of 7 or 8 mice relative to untreated controls.
as §10, §11, §12
For highly metastatic tumors including: Lewis and Madison lung tumors, colon carcinoma 26 and B16 melanoma and its F10 subline, tumor-bearing mice are monitored for survival time as well. For the less mestastatic tumor models, tumor-bearing mice are killed following tumor measurement. In this setting, an increase in lifespan of ≥30 percent is considered to be evidence of drug activity.

[22] = test system: sc colon adenocarcinoma 51; assay type: in vivo, mouse; conditions: sc Colon Adenocarcinoma 51; optimal doses and optimal schedules
From the text: as §1

[23] = test system: sc colon adenocarcinoma 38; conditions: sc Colon Adenocarcinoma 38; optimal doses and optimal schedules
Method: as §9, §10, §11, §12

| Compound | Increase in Lifespan (ILS) or Inhibition of Tumor Growth (TGI) [1] | Increase in Lifespan (ILS) or Inhibition of Tumor Growth (TGI) [2] [% TGI] | Increase in Lifespan (ILS) or Inhibition of Tumor Growth (TGI) [4] [% ILS] | Increase in Lifespan (ILS) or Inhibition of Tumor Growth (TGI) [5] [% TGI] | Increase in Lifespan (ILS) or Inhibition of Tumor Growth (TGI) [6] [% TGI] | Increase in Lifespan (ILS) or Inhibition of Tumor Growth (TGI) [7] [% ILS] | Increase in Lifespan (ILS) or Inhibition of Tumor Growth (TGI) [8] [% TGI] | solubility in water / aqueous vehicles [9] | Increase in Lifespan (ILS) or Inhibition of Tumor Growth (TGI) [10] [% ILS] | Increase in Lifespan (ILS) or Inhibition of Tumor Growth (TGI) [11] | Increase in Lifespan (ILS) or Inhibition of Tumor Growth (TGI) [12] [% TGI] | Increase in Lifespan (ILS) or Inhibition of Tumor Growth (TGI) [13] [% ILS] | In Vivo Antitumor Activity ILS (increase in lifespan) [14] [%] | Increase in Lifespan (ILS) or Inhibition of Tumor Growth (TGI) [14] [% ILS] | Increase in Lifespan (ILS) or Inhibition of Tumor Growth (TGI) [16] [% ILS] | Increase in Lifespan (ILS) or Inhibition of Tumor Growth (TGI) [17] [% TGI] | Increase in Lifespan (ILS) or Inhibition of Tumor Growth (TGI) [18] [% TGI] | other results |
| --- | --- | --- | --- | --- | --- | --- | --- | --- | --- | --- | --- | --- | --- | --- | --- | --- | --- | --- |
| CC[C@@]1(O)C(=O)OCc2c1cc1n(c2=O)Cc2cc3cc(O)ccc3nc2-1 [10-Hydroxycamptothecin, (20 S) 10-Hydroxycamptothecin, reference compound] | Curative | 61 | 100 | 4 | 58 | 40 | 66 | insolubility in aqueous vehicles | 98 | Curative | 76 | 100 | 94 | 94 | 95 | 33 | 37 | IC50 [3]: 18 nM; MTD [15]: 9 mg/kg |
| CC[C@@](O)(C(=O)O)c1cc2n(c(=O)c1CO)Cc1cc3c(CN(C)C)c(O)ccc3nc1-2 [21S, Sodium Salt] | – | – | – | – | – | – | – | – | – | – | – | – | > 200 | – | – | – | – | fold less potent than the three acid salts ([4]; by maximally tolerated dose, iv L1210): about 3.5 fold; ILS ([4]; 6.5 mg/kg): 33%; ILS ([4]; 12 mg/kg): 67%; ILS ([4]; 19 mg/kg): 100%; ILS ([4]; 32 mg/kg): 133%; ILS ([4]; 54 mg/kg): 208%; ILS ([4]; 90 mg/kg): toxic; MTD [19]: 54 mg/kg; MTD [20]: 54 mg/kg |
| CC[C@@]1(O)C(=O)OCc2c1cc1n(c2=O)Cc2cc3ccccc3nc2-1 [Camptothecin] | Curative | 99 | 136 | 92 | 90 | 75 | 100 | insolubility in aqueous vehicles | 81 | 50 % ILS | 100 | 68 | – | 172 | 36 | 63 | 66 | Increase in Lifespan (ILS) or Inhibition of Tumor Growth (TGI) [21]: 78 % TGI; Increase in Lifespan (ILS) or Inhibition of Tumor Growth (TGI) [22]: 75 % TGI; Increase in Lifespan (ILS) or Inhibition of Tumor Growth (TGI) [23]: 100 % TGI |
